PubChem BioAssay (NCI)
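Five compound concentrations were applied to cells in 96-well plates for 48 hours; endpoints were derived by simple linear interpolation of the resulting dose-response curve. TGI is the concentration that stops growth completely.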

Assays:
Assay in all cases: NCI tumour cell line growth inhibition, 48 h
786-0 renal = test system: 786-0 renal
A498 renal = test system: A498 renal
A549 NSCLC = test system: A549 NSCLC
ACHN renal = test system: ACHN renal
BT-549 breast = test system: BT-549 breast
CAKI-1 renal = test system: CAKI-1 renal
COLO 205 colon = test system: COLO 205 colon
DU-145 prostate = test system: DU-145 prostate
EKVX NSCLC = test system: EKVX NSCLC
HCT-116 colon = test system: HCT-116 colon
HCT-15 colon = test system: HCT-15 colon
HOP-62 NSCLC = test system: HOP-62 NSCLC
HOP-92 NSCLC = test system: HOP-92 NSCLC
HS 578T breast = test system: HS 578T breast
HT29 colon = test system: HT29 colon
IGROV1 ovarian = test system: IGROV1 ovarian
K-562 leukemia = test system: K-562 leukemia
KM12 colon = test system: KM12 colon
LOX IMVI melanoma = test system: LOX IMVI melanoma
M14 melanoma = test system: M14 melanoma
MALME-3M melanoma = test system: MALME-3M melanoma
MCF7 breast = test system: MCF7 breast
MDA-MB-231 breast = test system: MDA-MB-231 breast
MDA-MB-435 = test system: MDA-MB-435
MDA-N = test system: MDA-N
MOLT-4 leukemia = test system: MOLT-4 leukemia
NCI-H226 lung = test system: NCI-H226 lung
NCI-H460 lung = test system: NCI-H460 lung
NCI-H522 lung = test system: NCI-H522 lung
NCI/ADR-RES ovarian = test system: NCI/ADR-RES ovarian
OVCAR-3 ovarian = test system: OVCAR-3 ovarian
OVCAR-4 ovarian = test system: OVCAR-4 ovarian
OVCAR-5 ovarian = test system: OVCAR-5 ovarian
OVCAR-8 ovarian = test system: OVCAR-8 ovarian
PC-3 prostate = test system: PC-3 prostate
RPMI-8226 leukemia = test system: RPMI-8226 leukemia
RXF 393 renal = test system: RXF 393 renal
SF-268 CNS = test system: SF-268 CNS
SF-295 CNS = test system: SF-295 CNS
SK-MEL-2 melanoma = test system: SK-MEL-2 melanoma
SK-MEL-28 melanoma = test system: SK-MEL-28 melanoma
SK-MEL-5 melanoma = test system: SK-MEL-5 melanoma
SN12C renal = test system: SN12C renal
SNB-19 CNS = test system: SNB-19 CNS
SNB-75 CNS = test system: SNB-75 CNS
SR leukemia = test system: SR leukemia
T-47D breast = test system: T-47D breast
TK-10 renal = test system: TK-10 renal
U251 CNS = test system: U251 CNS
UACC-257 melanoma = test system: UACC-257 melanoma
UACC-62 melanoma = test system: UACC-62 melanoma
UO-31 renal = test system: UO-31 renal
CCRF-CEM leukemia = test system: CCRF-CEM leukemia
HL-60(TB) leukemia = test system: HL-60(TB) leukemia
NCI-H23 lung = test system: NCI-H23 lung
SF-539 CNS = test system: SF-539 CNS
SK-OV-3 ovarian = test system: SK-OV-3 ovarian
SW-620 colon = test system: SW-620 colon

Measured: TGI

NCCCN1CCN(c2ccccc2)CC1
87.7 µM: OVCAR-3 ovarian
> 100 µM: 786-0 renal | A498 renal | A549 NSCLC | ACHN renal | BT-549 breast | CAKI-1 renal | COLO 205 colon | DU-145 prostate | EKVX NSCLC | HCT-116 colon | HCT-15 colon | HOP-62 NSCLC | HOP-92 NSCLC | HS 578T breast | HT29 colon | IGROV1 ovarian | K-562 leukemia | KM12 colon | LOX IMVI melanoma | M14 melanoma | MALME-3M melanoma | MCF7 breast | MDA-MB-231 breast | MDA-MB-435 | MDA-N | MOLT-4 leukemia | NCI-H226 lung | NCI-H460 lung | NCI-H522 lung | NCI/ADR-RES ovarian | OVCAR-4 ovarian | OVCAR-5 ovarian | OVCAR-8 ovarian | PC-3 prostate | RPMI-8226 leukemia | RXF 393 renal | SF-268 CNS | SF-295 CNS | SK-MEL-2 melanoma | SK-MEL-28 melanoma | SK-MEL-5 melanoma | SN12C renal | SNB-19 CNS | SNB-75 CNS | SR leukemia | T-47D breast | TK-10 renal | U251 CNS | UACC-257 melanoma | UACC-62 melanoma | UO-31 renal

c1ccc2c(CC3NCCN3)cccc2c1
> 100 µM: 786-0 renal | A498 renal | A549 NSCLC | ACHN renal | BT-549 breast | CAKI-1 renal | CCRF-CEM leukemia | COLO 205 colon | DU-145 prostate | EKVX NSCLC | HCT-116 colon | HCT-15 colon | HL-60(TB) leukemia | HOP-62 NSCLC | HOP-92 NSCLC | HS 578T breast | HT29 colon | IGROV1 ovarian | K-562 leukemia | KM12 colon | LOX IMVI melanoma | M14 melanoma | MALME-3M melanoma | MCF7 breast | MDA-MB-231 breast | MDA-MB-435 | MDA-N | MOLT-4 leukemia | NCI-H226 lung | NCI-H23 lung | NCI-H460 lung | NCI-H522 lung | NCI/ADR-RES ovarian | OVCAR-3 ovarian | OVCAR-4 ovarian | OVCAR-5 ovarian | OVCAR-8 ovarian | PC-3 prostate | RPMI-8226 leukemia | RXF 393 renal | SF-268 CNS | SF-295 CNS | SF-539 CNS | SK-MEL-2 melanoma | SK-MEL-28 melanoma | SK-MEL-5 melanoma | SK-OV-3 ovarian | SN12C renal | SNB-19 CNS | SNB-75 CNS | SR leukemia | SW-620 colon | T-47D breast | TK-10 renal | U251 CNS | UACC-257 melanoma | UACC-62 melanoma

CN(C)CCNc1ccc(NCC[N+](C)(C)Cc2ccc([N+](=O)[O-])cc2)c2c1C(=O)c1ccccc1C2=O
> 25 µM: 786-0 renal | A498 renal | A549 NSCLC | ACHN renal | BT-549 breast | CAKI-1 renal | COLO 205 colon | DU-145 prostate | EKVX NSCLC | HCT-116 colon | HOP-62 NSCLC | HOP-92 NSCLC | HS 578T breast | HT29 colon | IGROV1 ovarian | KM12 colon | LOX IMVI melanoma | M14 melanoma | MALME-3M melanoma | MCF7 breast | MDA-MB-231 breast | MDA-MB-435 | MDA-N | MOLT-4 leukemia | NCI-H226 lung | NCI-H23 lung | NCI-H522 lung | NCI/ADR-RES ovarian | OVCAR-3 ovarian | OVCAR-5 ovarian | OVCAR-8 ovarian | PC-3 prostate | RPMI-8226 leukemia | RXF 393 renal | SF-268 CNS | SF-295 CNS | SK-MEL-2 melanoma | SK-MEL-28 melanoma | SK-MEL-5 melanoma | SK-OV-3 ovarian | SN12C renal | SNB-75 CNS | SR leukemia | SW-620 colon | T-47D breast | TK-10 renal | U251 CNS | UACC-257 melanoma | UACC-62 melanoma | UO-31 renal
13.6 µM: HL-60(TB) leukemia
